From US20090169540A1, “Use Of An Antagonist Of Epac For Treating Human Cardiac Hypertrophy” (priority 2005, published 2009)
Like-named read-outs stand apart in the source and are kept apart here.

How the values were obtained:
[1] = test system: neonatal rat ventricular myocytes; test: Cell surface area by computer-assisted planimetry, neonatal cardiomyocytes; format: cell-based; conditions: for Cell surface area: 8-CPT 1 μM or PE 1 μM or adenovirus, compared to control Ad.GFP
MEF2 (MEF2-Luc) = test: MEF2-Luc transcriptional activity in cardiomyocytes; format: cell-based, rat; conditions: cells infected with Ad.EpacWT or Ad.Epac-DcAMP; CsA 0.5 μM, KN-93 1 μM, or co-infection
[2] = cited from earlier work
[3] = test system: neonatal rat ventricular myocytes; test: [3H]-leucine incorporation (protein synthesis), neonatal cardiomyocytes; format: cell-based; conditions: 8-CPT 1 μM, PE 1 μM or adenovirus
[4] = test system: neonatal rat ventricular myocytes; test: Sarcomeric / cytoskeletal organization by phalloidin staining, neonatal cardiomyocytes; format: cell-based; conditions: 48 h; 8-CPT (1 mM) and PE (1 mM) as printed, in Ad.GFP cells; vs Ad.GFP alone
ANF promoter (ANF-Luc) = test: ANF-Luc reporter gene assay in neonatal cardiomyocytes; format: cell-based, rat; conditions: 8-CPT 1 μM, compared to control cells
Experimental: FIGS. 2A, 2C and 2D: Neonatal cardiomycoytes were transfected with ANF-Luc (FIG. 2A), SkM-α-actin-Luc (FIG. 2C) or c-fos-SRE-Luc (FIG. 2D) and EpacWT, RacG12V or the empty vector (mock) as control and treated or not with 8-CPT (1 μM). Two days after transfection, cells were assayed for luciferase activity. Results are expressed as percentage activation of control. Results are means±S.E.M. for 3 independent experiments performed in triplicates.
In FIGS. 8A, 8B and 8C, cardiomyocytes infected with Ad.GFP (control), Ad.RacS17N, Ad.EpacWT, or Ad.EpacWT and Ad.RacS17N were transfected with NFAT-Luc, MEF2-Luc or ANF-Luc. Two days after, Luc activity was determined. Luc activity was normalized to control for each experiment, and were expressed as means±S.E.M of at least 3 separate experiments performed in triplicate
The plasmid constructs were generously provided by the following: a −3003 bp fragment of the rat ANF promoter fused to the luciferase reporter gene (ANF-Luc) by Dr. K. Knowlton, Luciferase reporter genes linked to promoters for skeletal muscle α-actin (SkM-α-actin-Luc) and serum response element-regulated c-fos (c-fos-SRE-Luc) by Dr. M. D. Schneider, Epac1 plasmid constructs by Dr. J. Bos. […]

Rac [5] = test: Rac activation assay (Rac-GTP pull-down), primary rat ventricular cardiomyocytes; format: cell-based
[6] = test system: neonatal rat ventricular myocytes; format: cell-based
Rac [7] = test: Rac activation assay (Rac-GTP pull-down), HL-1 atrial cells; format: cell-based, mouse
Experimental: Rac activation was determined as above. […] Rac-GTP samples and total lysates were separated on SDS-PAGE gels and transferred onto a polyvinylidene difluoride (PVDF) membrane (Amersham Pharmacia Biotech).

COc1ccc(S(=O)(=O)N(CCO)c2ccccc2CN(C)C/C=C/c2ccc(Cl)cc2)cc1 [KN-93]
Ad.Epac-DcAMP-induced increase in cell surface area ([1]; KN-93 1 μM, 2 days): significantly decreased | Epac-induced MEF2 transcriptional (luciferase) activity (MEF2 (MEF2-Luc)): completely blocked

CCCCc1oc2ccccc2c1C(=O)c1cc(I)c(OCCN(CC)CC)c(I)c1 [Amiodarone]
Hypothyroidism incidence ([2]; as high as, in some series): 8%-19% | Hyperthyroidism incidence ([2]; human, in vivo): about 2% | Liver function test abnormalities incidence ([2]; human, in vivo): 4%-9% | Other serious side effect ([2]; human, in vivo): optic neuropathy, which can lead to blindness | Proarrhythmia incidence ([2]; human, in vivo): 2%-5% | Hypothyroidism incidence ([2]; in some cases): 2%-4%

CNC[C@H](O)c1cccc(O)c1 [PE, phenylephrine]
Protein synthesis ([3H]-leucine uptake) [3]: approximate two fold increase | Cytoskeletal (F-actin) / sarcomeric organization [4]: comparable | Cell surface area ([1]; 2 days): Identical results

CO[C@@H]1[C@@H]2OP(=O)(O)OC[C@H]2O[C@H]1n1c(Sc2ccc(Cl)cc2)nc2c(N)ncnc21 [8-CPT, 8-(4-chloro-phenylthio)-2′-O-methyladenosine-3′-5′cyclic monophosphate]
Activation of the ANF-Luc reporter gene (ANF promoter (ANF-Luc)): three fold activation | Rac activation in cells infected with Ad.EpacWT (Rac [5]; Ad.EpacWT-infected cells treated with 8-CPT 1 μM for 10 min): further increased | Rac activation (Rac-GTP) (Rac [5]; activation of endogenous Epac, 8-CPT 1 μM, 10 min, rat cardiac myocytes): increased Rac activation | Frequency of spontaneous Ca2+ transients [6]: 0.51±0.04 Hz | Frequency of spontaneous Ca2+ transients ([6]; 8-CPT 100 nM, physiological external [Ca2+], n=13): 0.40±0.05 Hz | Ca2+ spike frequency ([6]; 8-CPT 10 μM in the presence of 20 mM external Cs+, n=8): 1.25±0.35 Hz | Effect on Ca2+ transients ([6]; 8-CPT 10 μM, absence of external Ca2+): had no effect | Amplitude of Ca2+ spikes ([6]; 8-CPT 10 μM, physiological external [Ca2+]): without changing the amplitude of the spikes | Ca2+ spike frequency ([6]; 8-CPT 100 μM, absence of external Ca2+, n=4): 0.12±0.02 Hz | Ca2+ spike frequency ([6]; 8-CPT 100 μM, absence of external Ca2+, presence of H89 1 μM, n=8): 0.23±0.049 Hz | Protein synthesis ([3H]-leucine uptake) [3]: approximate two fold increase | Cytoskeletal (F-actin) / sarcomeric organization [4]: apparent increase of the F-actin meshwork and an heavily striated appearance | Cell surface area ([1]; 2 days): two fold increase | Effect of Ad.EpacWT on cell surface area in the presence of 8-CPT ([1]; Ad.EpacWT-infected cells plus 8-CPT 1 μM): not further increased | Amount of Rac-GTP / Rac activation (Rac [7]; HL-1 adult mouse atrial cells, 100 μM, 10 min exposure): strong increase in the amount of Rac-GTP | Treatment time upon which 8-CPT-induced Rac activation was detected (Rac [7]; HL-1 cells, 8-CPT 10 μM time course (FIG. 1C)): 5 min

C[C@H](CCC(=O)O)C[C@H](C)C[C@H](C)C(=O)/C=C(\O)[C@H](C)C[C@H](C)C/C=C/[C@@H](C)[C@@H](O)[C@@H](C)[C@@H](O)C[C@@H]1CC[C@@](C)([C@H]2CC[C@@](C)([C@@H](C)O)O2)O1 [ionomycin]
Effect on Rac activation relative to positive control PE (1 μM) (Rac [5]; ionomycin 1 μM vs PE 1 μM 15 min): as potent as PE | Rac activation (Rac [5]; ionomycin 1 μM, different times of incubation): increased Rac activation in a time dependent manner

O=S(=O)(NCCNC/C=C/c1ccc(Br)cc1)c1cccc2cnccc12 [H89]
8-CPT-induced increase in Ca2+ transients frequency ([6]; H89 1 μM, 8-CPT 100 μM, absence of external Ca2+): failed to block
